Results: US20210238192A1, “VASCULAR ADHESION PROTEIN-1 (VAP-1) MODULATORS AND THERAPEUTIC USES THEREOF” (Blade Therapeutics, Inc., priority 2018, published 2021)

Key:
Assay type in all cases: biochemical
Human MAO-A = target: T1, Human MAO-A (Homo sapiens, UniProt P21397); assay: MAO-A inhibition (Amplex Red continuous fluorescence assay); conditions: 30 min pre-incubation at room temp; substrate tyramine; read-out: Human MAO-A IC50
T1 sequence (P21397 1-527): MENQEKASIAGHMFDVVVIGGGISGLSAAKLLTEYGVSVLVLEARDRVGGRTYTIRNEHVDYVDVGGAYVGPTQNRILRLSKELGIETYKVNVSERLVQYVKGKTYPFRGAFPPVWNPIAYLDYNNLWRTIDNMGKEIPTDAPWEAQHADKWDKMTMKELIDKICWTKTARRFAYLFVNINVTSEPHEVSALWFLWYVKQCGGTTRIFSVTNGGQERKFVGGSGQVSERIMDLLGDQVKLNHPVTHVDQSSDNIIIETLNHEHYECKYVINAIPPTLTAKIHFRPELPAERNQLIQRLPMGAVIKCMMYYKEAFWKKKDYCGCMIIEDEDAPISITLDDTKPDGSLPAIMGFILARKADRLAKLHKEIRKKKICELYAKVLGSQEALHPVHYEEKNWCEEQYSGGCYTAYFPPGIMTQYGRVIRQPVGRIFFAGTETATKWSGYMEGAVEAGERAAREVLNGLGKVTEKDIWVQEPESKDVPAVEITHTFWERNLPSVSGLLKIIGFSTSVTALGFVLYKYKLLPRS
In short: (§1)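 Continuous Amplex Red/HRP fluorescence read of H2O2 (ex/em 510/565 nm, 5 min). Substrates and buffers: VAP-1 benzylamine, […] sodium phosphate pH 7.4, 30 min 37° C preincubation; MAO-A tyramine and MAO-B benzylamine, same buffer, room temp; DAO histamine, 50 mM HEPES pH 7.5, room temp. IC50 from 4-parameter fit of rates.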

Human DAO = target: T2, Human DAO (Homo sapiens, UniProt P19801); assay: DAO inhibition (Amplex Red continuous fluorescence assay); conditions: 30 min pre-incubation at room temp; substrate histamine; read-out: Human DAO IC50
T2 sequence (P19801 20-751): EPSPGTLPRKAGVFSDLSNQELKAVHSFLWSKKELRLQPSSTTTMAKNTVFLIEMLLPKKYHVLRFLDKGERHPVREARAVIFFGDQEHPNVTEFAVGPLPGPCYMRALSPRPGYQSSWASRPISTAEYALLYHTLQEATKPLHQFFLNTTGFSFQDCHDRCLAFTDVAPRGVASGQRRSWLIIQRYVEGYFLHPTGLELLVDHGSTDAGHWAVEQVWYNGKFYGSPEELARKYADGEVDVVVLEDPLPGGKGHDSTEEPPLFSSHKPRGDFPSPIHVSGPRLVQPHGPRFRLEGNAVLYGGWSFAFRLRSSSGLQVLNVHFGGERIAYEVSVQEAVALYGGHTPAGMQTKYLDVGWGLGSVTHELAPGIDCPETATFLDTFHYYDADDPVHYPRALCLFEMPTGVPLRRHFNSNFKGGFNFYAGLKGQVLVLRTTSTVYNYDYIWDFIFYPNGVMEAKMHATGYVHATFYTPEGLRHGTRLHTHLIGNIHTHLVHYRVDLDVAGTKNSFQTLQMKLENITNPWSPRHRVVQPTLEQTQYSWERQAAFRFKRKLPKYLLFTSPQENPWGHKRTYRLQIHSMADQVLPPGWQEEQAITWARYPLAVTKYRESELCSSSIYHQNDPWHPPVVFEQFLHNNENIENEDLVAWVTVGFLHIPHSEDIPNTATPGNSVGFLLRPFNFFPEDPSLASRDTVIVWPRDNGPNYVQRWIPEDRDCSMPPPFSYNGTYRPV
In short: as §1

Human VAP-1 = target: T3, Human VAP-1 (Homo sapiens, UniProt Q16853); assay: VAP-1 inhibition assay (Amplex Red continuous fluorescence assay); conditions: 30 min pre-incubation at 37° C.; substrate benzylamine; read-out: Human VAP-1 IC50
T3 sequence (Q16853 1-763): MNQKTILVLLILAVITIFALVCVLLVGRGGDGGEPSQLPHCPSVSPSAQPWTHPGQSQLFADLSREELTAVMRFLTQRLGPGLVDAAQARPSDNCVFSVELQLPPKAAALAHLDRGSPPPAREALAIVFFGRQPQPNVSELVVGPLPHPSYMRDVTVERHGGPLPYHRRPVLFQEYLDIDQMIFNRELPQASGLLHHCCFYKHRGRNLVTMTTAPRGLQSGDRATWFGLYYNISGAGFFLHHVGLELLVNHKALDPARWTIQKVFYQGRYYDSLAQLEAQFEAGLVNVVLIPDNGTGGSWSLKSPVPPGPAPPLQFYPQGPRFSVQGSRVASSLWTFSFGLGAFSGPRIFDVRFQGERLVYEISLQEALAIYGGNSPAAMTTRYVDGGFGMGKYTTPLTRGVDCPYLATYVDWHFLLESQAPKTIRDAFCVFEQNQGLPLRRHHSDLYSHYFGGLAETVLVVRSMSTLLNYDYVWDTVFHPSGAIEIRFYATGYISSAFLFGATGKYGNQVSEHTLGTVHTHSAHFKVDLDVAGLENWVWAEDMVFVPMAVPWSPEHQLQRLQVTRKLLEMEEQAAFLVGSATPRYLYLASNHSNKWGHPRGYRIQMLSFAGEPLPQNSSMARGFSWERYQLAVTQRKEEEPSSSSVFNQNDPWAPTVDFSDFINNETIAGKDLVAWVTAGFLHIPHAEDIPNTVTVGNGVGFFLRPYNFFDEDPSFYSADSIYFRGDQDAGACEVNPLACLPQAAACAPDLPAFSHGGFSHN
In short: as §1

Human MAO-B = target: T4, Human MAO-B (Homo sapiens, UniProt P27338); assay: MAO-B inhibition (Amplex Red continuous fluorescence assay); conditions: 30 min pre-incubation at room temp; substrate benzylamine; read-out: Human MAO-B IC50
T4 sequence (P27338 1-520): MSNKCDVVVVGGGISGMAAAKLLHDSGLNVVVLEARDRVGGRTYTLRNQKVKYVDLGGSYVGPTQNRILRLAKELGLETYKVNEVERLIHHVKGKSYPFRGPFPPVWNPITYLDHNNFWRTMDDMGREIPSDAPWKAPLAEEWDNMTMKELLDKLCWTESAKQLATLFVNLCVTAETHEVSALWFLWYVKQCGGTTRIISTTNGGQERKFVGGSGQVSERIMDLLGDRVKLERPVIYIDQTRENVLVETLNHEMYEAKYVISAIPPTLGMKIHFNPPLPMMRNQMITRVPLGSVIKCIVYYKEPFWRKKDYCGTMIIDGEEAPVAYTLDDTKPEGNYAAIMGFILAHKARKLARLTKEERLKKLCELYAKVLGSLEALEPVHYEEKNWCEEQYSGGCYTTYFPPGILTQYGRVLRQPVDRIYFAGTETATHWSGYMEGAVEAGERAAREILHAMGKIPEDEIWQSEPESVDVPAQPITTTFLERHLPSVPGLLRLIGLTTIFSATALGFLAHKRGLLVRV
In short: as §1

IC50 (Human MAO-A) [µM]	IC50 (Human DAO) [µM]	IC50 (Human VAP-1) [µM]	IC50 (Human MAO-B) [µM]	Structure (SMILES)
> 10	< 3	< 3	> 10	NC/C(=C/F)COc1cnc(N2CC[C@H](O)C2)nc1 [Compound 80]
> 10	< 3	< 3	> 10	CO[C@H]1CCN(c2ncc(OC/C(=C/F)CN)cn2)C1 [Compound 81]
3 to 10	3 to 10	< 3	< 3	CCC(=O)Nc1ccc(OC/C(=C/F)CN)cc1 [Compound 82, (E)-N-(4-((2-(aminomethyl)-3-fluoroalkyl)oxy)phenyl)propionamide]
